Earlier results, collected in patent publication US4826688A, “Controlled absorption pharmaceutical formulation” (501 Elan Corporation PLC., priority 1985, dated 1989).

Structure (SMILES): C=C[C@H]1C[N@@]2CC[C@H]1C[C@@H]2[C@@H](O)c1ccnc2ccc(OC)cc12 [Quinidine sulphate]
- absorption from the gastro-intestinal tract (in words): rapidly absorbed
- peak plasma concentrations are reached (quinidine sulphate, usual): about two

Structure (SMILES): C=C[C@H]1C[N@@]2CC[C@H]1C[C@@H]2[C@@H](O)c1ccnc2ccc(OC)cc12 [Quinidine, (+)-α-(6-methoxyquinolin-4-yl)-α-(5-vinylquinuclidin-2-yl)methanol]
- excretion in the urine (in words): almost entirely excreted in the urine
